According to US9492508B2, “Parathyroid hormone analogs and uses thereof” (The General Hospital Corporation, priority 2010, dated 2016):
“Also recorded” adds a separate entry of the source. Ends that are not written are not given here.

How the values were obtained:
[1] = Blood Ca++ responses in mice; type: in vivo, mice (C57 BL/6); settings: 5 nmol/kg s.c., 4, 6, 8 and 24 hours
Method: Blood Ca^++ responses in mice were also assayed. Mice (C57 BL/6) were injected subcutaneously with either vehicle or the indicated ligand to give a final dose of 5 nmol/kg body weight, and blood was withdrawn via the tail at times after injection and assessed for Ca^++ concentration using a Bayer Rapid Lab model 348 blood analyzer. […] A similar experiment using 10 nmol/kg by intravenous injection was also conducted with similar results (FIGS. 8C and 8D).

PD PTH receptor = biological target: T1, PD PTH receptor (Mus musculus, UniProt P41593, S489A/S491A/S492A/S493A/S495A/S501A/S504A); test: Blood calcium and cAMP in knock-in mice with phosphorylation-deficient (PD) PTH receptor vs wild-type; type: in vivo; settings: FIG. 19
T1 construct: endogenous in cells; host or cells: knock-in mice (in vivo)
T1 sequence (P41593 27-591 S489A/S491A/S492A/S493A/S495A/S501A/S504A): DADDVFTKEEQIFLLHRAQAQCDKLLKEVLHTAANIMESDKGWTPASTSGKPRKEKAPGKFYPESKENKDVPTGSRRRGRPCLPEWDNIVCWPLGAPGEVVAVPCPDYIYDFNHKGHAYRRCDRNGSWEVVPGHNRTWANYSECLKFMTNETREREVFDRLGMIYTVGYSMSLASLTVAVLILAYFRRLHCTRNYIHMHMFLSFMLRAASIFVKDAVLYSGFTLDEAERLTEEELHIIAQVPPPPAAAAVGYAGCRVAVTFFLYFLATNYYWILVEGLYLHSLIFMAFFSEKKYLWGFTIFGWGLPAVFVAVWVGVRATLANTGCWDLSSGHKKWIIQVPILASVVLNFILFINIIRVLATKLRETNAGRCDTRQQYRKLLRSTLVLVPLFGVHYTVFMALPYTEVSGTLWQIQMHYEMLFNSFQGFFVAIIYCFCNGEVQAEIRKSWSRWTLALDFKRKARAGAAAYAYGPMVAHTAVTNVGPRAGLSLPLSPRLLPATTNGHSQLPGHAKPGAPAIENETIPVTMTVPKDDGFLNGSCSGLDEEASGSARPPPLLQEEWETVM
Method: The activity of SP-PTH-AAK (SEQ ID NO:4) was tested in “knock-in” mice that express a PD PTH receptor in place of the wild-type PTH receptor (Bounoutas et al., Endocrinology 147: 4674, 2006).
Blood cAMP levels were also compared between the two types of mice.

rat PTHR1 (RG) = biological target: T2, rat PTHR1 (RG) (Rattus norvegicus, UniProt P25961); test: Competition binding, RG conformation of rat PTHR1
T2 construct: expressed in transfected cells
T2 sequence (P25961 27-591): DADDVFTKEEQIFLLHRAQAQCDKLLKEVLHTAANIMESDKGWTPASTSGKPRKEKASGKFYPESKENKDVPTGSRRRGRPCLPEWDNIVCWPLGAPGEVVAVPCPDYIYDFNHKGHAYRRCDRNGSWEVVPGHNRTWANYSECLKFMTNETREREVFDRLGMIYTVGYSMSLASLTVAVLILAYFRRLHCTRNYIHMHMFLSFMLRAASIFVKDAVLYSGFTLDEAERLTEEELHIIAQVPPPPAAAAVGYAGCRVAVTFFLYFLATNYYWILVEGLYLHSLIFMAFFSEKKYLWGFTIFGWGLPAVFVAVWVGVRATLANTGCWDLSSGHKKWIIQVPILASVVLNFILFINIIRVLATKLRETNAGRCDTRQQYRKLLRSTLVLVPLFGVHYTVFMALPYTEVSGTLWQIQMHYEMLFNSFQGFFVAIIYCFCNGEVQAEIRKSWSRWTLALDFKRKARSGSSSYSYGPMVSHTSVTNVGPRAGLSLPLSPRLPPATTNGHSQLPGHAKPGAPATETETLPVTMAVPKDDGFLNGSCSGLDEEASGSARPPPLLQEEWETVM
Text: (§1) Briefly, the R^0 form of the receptor can be favored by addition of the non-hydrolyzable nucleotide analog GTPγS. The RG form can be favored, for example, by co-transfection of cells with a negative dominant Gαs subunit. […] Data are means of four experiments, each performed in duplicate. Curves were fit to the data using Graph-Pad Prism 4.0.

human PTHR1 (RG) = biological target: T3, human PTHR1 (RG) (Homo sapiens, UniProt Q03431); test: Competition binding, RG conformation of human PTHR1 (COS-7 membranes); settings: mean of 3 experiments, read-out: Binding human PTHR1 IC50 (Log M) RG (converted)
T3 construct: expressed in transfected cells; host or cells: COS-7 cells (membranes)
T3 sequence (Q03431 27-593): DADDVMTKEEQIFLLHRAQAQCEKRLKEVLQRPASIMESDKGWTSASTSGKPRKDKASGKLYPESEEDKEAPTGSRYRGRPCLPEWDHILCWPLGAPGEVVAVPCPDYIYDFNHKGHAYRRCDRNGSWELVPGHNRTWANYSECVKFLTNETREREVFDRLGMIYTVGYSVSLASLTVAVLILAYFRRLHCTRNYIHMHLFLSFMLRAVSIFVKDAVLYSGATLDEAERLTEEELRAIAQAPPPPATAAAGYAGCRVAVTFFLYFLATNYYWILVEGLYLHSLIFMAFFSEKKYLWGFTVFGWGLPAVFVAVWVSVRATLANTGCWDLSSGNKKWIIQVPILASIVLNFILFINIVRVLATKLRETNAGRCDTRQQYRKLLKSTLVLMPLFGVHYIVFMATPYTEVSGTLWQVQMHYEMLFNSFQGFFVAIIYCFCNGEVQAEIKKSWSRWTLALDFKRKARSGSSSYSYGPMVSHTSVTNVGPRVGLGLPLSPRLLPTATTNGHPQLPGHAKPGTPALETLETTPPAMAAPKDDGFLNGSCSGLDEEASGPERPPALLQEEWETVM
Method: as §1
Here, competition binding assays for the R^0 and RG PTHR1 conformation were performed in membranes prepared from transfected COS-7 cells, as described by Dean et al., Mol Endocrinol 22:156-66, 2008. Data are means of three experiments, each performed in duplicate. Curves were fit to the data using Graph-Pad Prism 4.0.

[2] = Plasma concentration in cynomolgus monkey after intravenous injection; type: in vivo; settings: male, 1 nmol/kg intravenous
Method: FIG. 11B is a graph showing plasma concentration of SP-PTH (SEQ ID NO:11) in monkey following intravenous injection of 1 nmol/kg.
The effects of the SP-PTH (SEQ ID NO:11) and SP-PTH-AAK (SEQ ID NO:4) (“SP-AAK”) on serum and urinary calcium and phosphate levels were tested in cynomolgus monkeys. Briefly, three- or four-year-old, male cynomolgus monkeys (HAMRI Co., Ltd., Ibaraki, Japan) were measured for their body weight. Blood was collected into tubes. Monkeys received intravenous or subcutaneous administration of each polypeptide at a dose of 0.3 ml/kg. Polypeptide concentrations in stock solution were adjusted by dilution with 25 mmol/L phosphate-citrate buffer/100 mmol/L NaCl/0.05% Tween 80 (pH.5.0) (PC-buffer). All polypeptides were allowed to stand on ice immediately before administration. Polypeptides were administered to groups of three monkeys each respectively. At 1, 2, 4, and 8 hours after administration, blood was collected by saphenous vein to monitor the time course of calcium and phosphorus levels (FIG. 11A).

Substance	blood calcium levels at later time points vs PTH(1-34) or vehicle [1]	blood calcium level in PD mice (PD PTH receptor)	binding to RG form of rat PTHR1, comparison in words (rat PTHR1 (RG); FIG. 1B)	IC50 (rat PTHR1 (RG); RG conformation, read-out: Binding rat PTHR1 IC50 nM RG (converted))	IC50 (human PTHR1 (RG))	half-life [2]
AVAEIQLMHQRAKWIQDARRRAFLHKLIAEIHTAEI-OH [SP-PTH-AAK, [Ala^1,3,12,18,22,Gln^10,Arg^11,Trp^14,Lys^26]PTH(1-14)/PTHrP(15-36)]	increased	reduced blood calcium level for at least six hours after injection	strongest binding; also recorded: increased	0.1 nM	0.224 nM	
AVAEIQLMHQRAKWIQDLRRRFFLHHLIAEIHTAEI-OH [SP-PTH, [Ala^1,3,12,Gln^10,Arg^11,Trp^14]PTH(1-14)/PTHrP(15-36)]	increased					~4 min
